Measured values: patent US20240041042A1, “1-(PYRIDYL)-5-AZINYLPYRAZOLE DERIVATIVES, AND THEIR USE FOR CONTROL OF UNDESIRED PLANT GROWTH” (Bayer Aktiengesellschaft, priority 2020, published 2024)
Read-outs that look alike come from different tables or passages of the source.

Columns and labels:
Type in all cases: in vivo
Viola tricolor (VIOTR) [1] = experiment: Pre-emergence herbicidal action against VIOTR
Summary of the method: (§1)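 Herbicide applied to soil before seedling emergence, at 600 l/ha spray volume with 0.5% additive and rates up to 320 g/ha. Evaluation: visual percentage effect, about 3 weeks later, greenhouse-grown pots compared with untreated ones.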

Setaria viridis (SETVI) [2] = experiment: Pre-emergence herbicidal action against SETVI
Summary of the method: as §1

[3] = test system: Verconica persica (VERPE); experiment: Pre-emergence herbicidal action against VERPE
Summary of the method: as §1

[4] = test system: Matricaria inodora (MATIN); experiment: Pre-emergence herbicidal action against MATIN
Summary of the method: as §1

[5] = test system: Alopecurus myosuroides (ALOMY); experiment: Pre-emergence herbicidal action against ALOMY; settings: scored visually after about 3 weeks, 100% = plants have died
Summary of the method: as §1

[6] = test system: Pharbitis purpurea (PHBPU); experiment: Pre-emergence herbicidal action against PHBPU; settings: dosage 320 g/ha
Summary of the method: as §1

[7] = test system: Echinochloa crus-galli (ECHCG); experiment: Post-emergence herbicidal action against ECHCG
Summary of the method: (§2)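 Values are percent visual activity (0% like control, 100% plants dead) after about 3 weeks in the greenhouse. Treatment: post-emergence spray at one-leaf stage, 600 l/ha spray volume, 0.5% additive, doses 320 g/ha or lower.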

Viola tricolor (VIOTR) [8] = experiment: Post-emergence herbicidal action against VIOTR
Summary of the method: as §2

[9] = test system: Abutilon theophrasti (ABUTH); experiment: Post-emergence herbicidal action against ABUTH; settings: visual rating about 3 weeks after treatment vs untreated controls (100% = plants have died, 0% = like control plants)
Summary of the method: as §2

[10] = test system: Verconica persica (VERPE); experiment: Post-emergence herbicidal action against VERPE; settings: 320 g/ha, VERPE
Summary of the method: as §2

Setaria viridis (SETVI) [11] = experiment: Post-emergence herbicidal action against SETVI
Summary of the method: as §2

[12] = test system: Polygonum convolvulus (POLCO); experiment: Post-emergence herbicidal action against POLCO; settings: dosage 320 g/ha
Summary of the method: as §2

[13] = test system: Pharbitis purpurea (PHBPU); experiment: Post-emergence herbicidal action against PHBPU; settings: dosage 320 g/ha
Summary of the method: as §2

[14] = test system: Amaranthus retroflexus (AMARE); experiment: Post-emergence herbicidal action against AMARE
Summary of the method: as §2

[15] = test system: Polygonum convolvulus (POLCO); experiment: Pre-emergence herbicidal action against POLCO; settings: dosage 320 g/ha
Summary of the method: as §1

Oryza sativa (ORYSA) = settings: crop plant compatibility, 80 g/ha, effect in comparison to untreated controls
Summary of the method: (§3)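 Test crops were treated 2 to 3 weeks after sowing, once they reached one leaf, by spraying compound in water with 0.5% additive at 600 l/ha. Visual scoring compared them with untreated controls roughly 3 weeks on, and appendices a, b and c denote different doses.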

[16] = test system: Triticum aestivum (TRZAS); settings: crop plant compatibility, 80 g/ha, effect vs untreated controls
Summary of the method: as §3

[17] = test system: Echinochloa crus-galli (ECHCG); experiment: Pre-emergence herbicidal action against ECHCG
Summary of the method: as §1

Zea mays (ZEAMX) [18] = settings: pre-emergence, 80 g/ha, crop plant compatibility, in comparison to untreated controls
Excerpt: Seeds of monocotyledonous and dicotyledonous weed plants and crop plants are placed in plastic or organic planting pots and covered with soil. The compounds of the invention, formulated in the form of wettable powders (WP) or as emulsion concentrates (EC), are then applied to the surface of the covering soil as aqueous suspension or emulsion with addition of 0.5% additive at a water application rate equivalent to 600 l/ha. After the treatment, the pots are placed in a greenhouse and kept under good growth conditions for the trial plants. After about 3 weeks, the effect of the preparations is scored visually in comparison with untreated controls as percentages. For example, 100% activity=the plants have died, 0% activity=like control plants.
The observed effects on selected crop plants are reported here in comparison to the untreated controls (values in %). The appendices “a” “b” and “c” give differentiation by dosage used with otherwise the same crop plants tested.

[19] = test system: Amaranthus retroflexus (AMARE); experiment: Pre-emergence herbicidal action against AMARE; settings: visual scoring after about 3 weeks vs untreated controls
Summary of the method: as §1

[20] = test system: Alopecurus myosuroides (ALOMY); experiment: Post-emergence herbicidal action against ALOMY; settings: 320 g/ha, visual rating about 3 weeks after treatment vs untreated controls (100% = plants have died, 0% = like control plants)
Summary of the method: as §2

Avena fatua (AVEFA) [21] = experiment: Post-emergence herbicidal action against AVEFA; settings: 320 g/ha, visual rating about 3 weeks after treatment
Summary of the method: as §2

Avena fatua (AVEFA) [22] = experiment: Pre-emergence herbicidal action against AVEFA; settings: 320 g/ha, visual scoring after about 3 weeks vs untreated controls
Summary of the method: as §1

[23] = test system: Matricaria inodora (MATIN); experiment: Post-emergence herbicidal action against MATIN
Summary of the method: as §2

Lolium rigidum (LOLRI) [24] = experiment: Post-emergence herbicidal action against LOLRI; settings: dosage 320 g/ha
Summary of the method: as §2

Zea mays (ZEAMX) [25] = settings: crop plant compatibility, effect vs untreated controls
Summary of the method: as §3

Lolium rigidum (LOLRI) [26] = experiment: Pre-emergence herbicidal action against LOLRI; settings: dosage 320 g/ha
Summary of the method: as §1

[27] = 320 g/ha, visual rating about 3 weeks after treatment
[28] = 80 g/ha, visual rating about 3 weeks after treatment vs untreated controls (100% = plants have died, 0% = like control plants)

Compound	Pre-emergence action against VIOTR in % (Viola tricolor (VIOTR) [1]; 320 g/ha, Viola tricolor)	Pre-emergence action against SETVI in % (Setaria viridis (SETVI) [2]; dosage 320 g/ha)	Pre-emergence action against VERPE in % ([3]; dosage 320 g/ha)	Pre-emergence action against MATIN in % ([4]; dosage 320 g/ha)	Pre-emergence action against ALOMY ([5]; 320 g/ha)	Pre-emergence action against PHBPU in % [6]	Post-emergence action against ECHCG in % ([7]; dosage 80 g/ha)	Post-emergence action against ECHCG in % ([7]; dosage 320 g/ha)	Post-emergence action against VIOTR in % (Viola tricolor (VIOTR) [8]; 80 g/ha)	Post-emergence action against VIOTR in % (Viola tricolor (VIOTR) [8]; 320 g/ha)	Post-emergence action against ABUTH in % ([9]; 320 g/ha)	Post-emergence action against VERPE in % [10]	Post-emergence action against SETVI in % (Setaria viridis (SETVI) [11]; dosage 320 g/ha)	Post-emergence action against POLCO in % [12]	Post-emergence action against PHBPU in % [13]	Post-emergence action against AMARE in % [14, 27]	Pre-emergence action against POLCO in % [15]	Pre-emergence action against ECHCG in % ([17]; dosage 320 g/ha)	Pre-emergence action against ZEAMX in % (Zea mays (ZEAMX) [18])	Pre-emergence action against AMARE in % ([19]; 320 g/ha)	further results
CCOC(=O)COc1nn(-c2ncccc2C(F)(F)F)c(-c2cncc(F)c2)c1Br [Example I-202]	100%	90%	90%	80%	80%	90%	80%	90%	80%	80%	80%	80%	80%	80%	90%	80%	90%	90%	20%	90%	Pre-emergence action against VIOTR in % (Viola tricolor (VIOTR) [1]; dosage 80 g/ha): 90%; Pre-emergence action against VERPE in % ([3]; dosage 80 g/ha): 80%; Post-emergence action against ORYSA in % (Oryza sativa (ORYSA)): 20%; Post-emergence action against TRZAS in % [16]: 20%
O=C(O)COc1nn(-c2nc(F)ccc2F)c(-c2ccc(F)nc2)c1Br [Example I-334]	90%	90%	80%	100%	90%	90%	80%	90%	80%	80%	80%	80%		80%	80%	80%	90%	90%	20%	100%	Post-emergence action against ALOMY in % [20]: 90%; Pre-emergence action against SETVI in % (Setaria viridis (SETVI) [2]; dosage 80 g/ha): 90%; Pre-emergence action against MATIN in % ([4]; dosage 80 g/ha): 80%; Pre-emergence action against ALOMY ([5]; 80 g/ha): 80%; Post-emergence action against AVEFA in % (Avena fatua (AVEFA) [21]): 80%; Post-emergence action against ABUTH in % ([9]; 80 g/ha): 80%; Pre-emergence action against AVEFA in % (Avena fatua (AVEFA) [22]): 90%; Post-emergence action against AMARE in % [14, 28]: 80%; Post-emergence action against MATIN in % ([23]; dosage 320 g/ha): 80%; Post-emergence action against LOLRI in % (Lolium rigidum (LOLRI) [24]): 90%; Post-emergence action against ZEAMX in % (Zea mays (ZEAMX) [25]; 80 g/ha): 10%; Post-emergence action against ZEAMX in % (Zea mays (ZEAMX) [25]; 320 g/ha): 20%; Post-emergence action against ORYSA in % (Oryza sativa (ORYSA)): 20%; Pre-emergence action against ECHCG in % ([17]; dosage 80 g/ha): 80%; Pre-emergence action against LOLRI in % (Lolium rigidum (LOLRI) [26]): 90%; Pre-emergence action against AMARE in % ([19]; 80 g/ha): 90%
CCOC(=O)COc1nn(-c2ncccc2F)c(-c2ccc(F)nc2)c1F [Example I-354]		90%		90%	80%			100%	80%	80%		90%	80%	80%	90%	80%	80%	100%	0%	90%	Post-emergence action against ALOMY in % [20]: 90%; Post-emergence action against AVEFA in % (Avena fatua (AVEFA) [21]): 80%; Post-emergence action against SETVI in % (Setaria viridis (SETVI) [11]; dosage 80 g/ha): 80%; Post-emergence action against AMARE in % [14, 28]: 80%; Post-emergence action against MATIN in % ([23]; dosage 80 g/ha): 80%; Post-emergence action against MATIN in % ([23]; dosage 320 g/ha): 80%; Post-emergence action against LOLRI in % (Lolium rigidum (LOLRI) [24]): 90%; Post-emergence action against ZEAMX in % (Zea mays (ZEAMX) [25]; 80 g/ha): 0%; Post-emergence action against TRZAS in % [16]: 0%; Pre-emergence action against AMARE in % ([19]; 80 g/ha): 80%
